Read-outs that look alike come from different tables or passages of the source. Values belong to the molecule of their own block, whether it stands above or below them.
Legend:
Rac1 [1] = tested on: Rac1; parameters: method as in PMID 15128949; conditions: inhibits Rac1 binding and activation by the GEFs Trio and Tiam1; cited from earlier work
Rac = conditions: cited from earlier work
Cdc42 = tested on: Cdc42; parameters: method as in PMID 23382385; conditions: read-out: IC50, Cdc42 selective inhibitor; cited from earlier work
[2] = tested on: GFP-HER2-BM, MDA-MB-231, and MDA-MB-468 cancer cell lines; test: Cell viability (MTT) assay, three cancer cell lines together; format: cell-based, human
Protocol: (§1) Using CellTiter 96 Non-Radioactive Cell Proliferation Assay (Promega, Corp.) according to manufactures’ instructions, formazan was used as an indicator of viable cells at an absorbance 570 nm in a Tecan Microplate Reader M100 (Tecan). Data were calculated as fold change from vehicle and transformed to logarithm base 10. 0 concentration was replaced with 1 nmol/L to fit using the 4-parameter logic nonlinear regression model in GraphPad Prism software. (n = 3 biologic replicates: with three technical replicates each).

MDA-MB-231 cells [3] = test: Wound healing assay; format: cell-based, human; conditions: 250 nmol/L; 12 and 24 hours
Protocol: MDA-MB-231 cells were plated on 12-well plates at equal cell density until confluent. Then the media was changed to 1% FBS, and a single scratch was made in the center of the monolayer culture with a pipet tip. Compounds were added immediately at 250 or 500 nmol/L and images were digitally acquired from a Keyence microscope (10×) at 0, 12, and 24 hours. The scratch area was quantified in ImageJ using the Macro Wound Healing Tool (http://dev.mri.cnrs.fr/projects/imagej-macros/wiki/Wound_Healing_Tool; n = 3 biologic replicates: with three technical replicates each).

GFP-HER2-BM cells [4] = test: Cell viability (MTT) assay; format: cell-based, human
Protocol: as §1
(§2) All half maximal growth inhibitory concentration (GI50) values were determined by using the 4-parameter logistic curve model in GraphPad Prism 9 software. Statistical analyses were done also using GraphPad Prism 9 software, and differences were considered statistically significant at P ≤ 0.05 using ordinary one-way ANOVA or unpaired Student t test with Dunnet multiple comparison tests.

GFP-HER2-BM cells [5] = test: Apoptosis assay (Caspase-Glo3/7); format: cell-based, human; conditions: 500 nmol/L, 48 hours
Protocol: (§3) Apoptosis was measured using a Caspase-Glo3/7 Luminescence Assay Kit as per manufacturer's instructions (Promega, Corp.), as described previously ([23]). Briefly, Caspase-3/7 Glo reagent was added and incubated at room temperature for 60 minutes and caspase-3/7 activities were determined by detecting luminescence using Tecan Microplate Reader M100 (Tecan). Data were calculated as fold change from vehicle. (n = 3 biologic replicates: with three technical replicates each).

CYP2C19 = target: T1, CYP2C19 (Homo sapiens, UniProt P33261); test: CyP450 enzyme assay (P450-Glo); format: in vitro ADME
T1 construct: purchased Promega
T1 sequence (P33261 whole entry): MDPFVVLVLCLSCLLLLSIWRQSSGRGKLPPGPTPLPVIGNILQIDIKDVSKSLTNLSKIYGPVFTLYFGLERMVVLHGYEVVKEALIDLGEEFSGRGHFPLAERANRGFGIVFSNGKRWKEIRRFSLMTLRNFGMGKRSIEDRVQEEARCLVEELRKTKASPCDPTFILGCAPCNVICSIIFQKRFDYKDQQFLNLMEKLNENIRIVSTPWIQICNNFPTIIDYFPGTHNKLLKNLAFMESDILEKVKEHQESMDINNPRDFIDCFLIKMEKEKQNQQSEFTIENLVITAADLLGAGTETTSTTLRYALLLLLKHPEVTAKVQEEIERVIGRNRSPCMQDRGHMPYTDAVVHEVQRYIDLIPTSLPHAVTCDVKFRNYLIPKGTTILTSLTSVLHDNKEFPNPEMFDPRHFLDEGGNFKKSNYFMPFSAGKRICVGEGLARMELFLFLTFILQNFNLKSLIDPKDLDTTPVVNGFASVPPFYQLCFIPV
Protocol: (§4) The assay was carried out using P450-Glo Screening System (Promega). The system contained recombinant human CYP enzyme and P450 reductase (and cytochrome b5 for CYP2C9, 2C19, and 3A4), luminogenic substrates appropriate for each CYP enzyme, a NADPH regeneration system (containing NADP+), and luciferin detection reagent. […] These compounds and organic solvents acetonitrile, and DMSO were purchased from Sigma-Aldrich.
(§5) First, 12.5 μL of the 4X stock solution of test compounds or positive controls (appropriate for each enzyme) were added to the “treated” wells. For the “untreated” (the values from these wells represent total CYP activity) and “minus-P450 control” wells (the values from these wells represent the CYP-independent background luminescence of the assay), 12.5 μL of vehicle was added. Then, 12.5 μL of the 4X control reaction mixture (containing membrane preparations devoid of CYP enzymes, the appropriate luminogenic substrate, and potassium phosphate buffer) were added to the minus-P450 control wells, and 12.5 μL of the 4X reaction mixture (containing human CYP membrane preparations, the appropriate luminogenic substrate, and potassium phosphate buffer) were added to all other wells. The plates were preincubated at room temperature for 10 minutes with the reaction mixture (membrane with enzyme, substrate, and 1 mol/L potassium phosphate buffer), and then 2X NADPH regeneration system was added to initiate the reaction. After incubation at room temperature for 30 minutes, 50 μL of the Luciferin Detection Reagent was added to stop the reaction and generate the luminescent signal. Before reading, the plate was incubated at room temperature for 20 minutes to stabilize the luminescent signal. The luminescence was measured using an Infinite F200 plate reader (Tecan). […] The percentage of CYP enzyme activity versus log concentration of test compounds were plotted to calculate the IC50 values.

CYP2C9 = target: T2, CYP2C9 (Homo sapiens, UniProt P11712); test: CyP450 enzyme assay (P450-Glo); format: in vitro ADME; conditions: recombinant human CYP enzyme, 0.001–100 μmol/L
T2 construct: purchased Promega
T2 sequence (P11712 whole entry): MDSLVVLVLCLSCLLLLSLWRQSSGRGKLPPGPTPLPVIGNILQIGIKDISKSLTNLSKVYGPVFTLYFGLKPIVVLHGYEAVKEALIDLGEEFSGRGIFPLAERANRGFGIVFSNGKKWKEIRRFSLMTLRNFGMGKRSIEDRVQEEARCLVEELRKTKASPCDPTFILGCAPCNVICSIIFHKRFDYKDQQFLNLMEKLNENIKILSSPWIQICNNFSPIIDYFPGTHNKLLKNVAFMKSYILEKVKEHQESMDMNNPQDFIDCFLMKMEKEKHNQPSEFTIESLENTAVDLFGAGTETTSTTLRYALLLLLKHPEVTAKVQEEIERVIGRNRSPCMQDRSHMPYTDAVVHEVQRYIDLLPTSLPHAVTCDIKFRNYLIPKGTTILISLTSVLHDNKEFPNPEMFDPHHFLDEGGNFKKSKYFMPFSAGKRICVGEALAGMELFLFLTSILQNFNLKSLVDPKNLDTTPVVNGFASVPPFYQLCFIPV
Protocol: as §4, §5

CYP3A4 = target: T3, CYP3A4 (Homo sapiens, UniProt P08684); test: CyP450 enzyme assay (P450-Glo); format: in vitro ADME; conditions: recombinant human CYP enzyme, 0.001–100 μmol/L
T3 construct: purchased Promega
T3 sequence (P08684 whole entry): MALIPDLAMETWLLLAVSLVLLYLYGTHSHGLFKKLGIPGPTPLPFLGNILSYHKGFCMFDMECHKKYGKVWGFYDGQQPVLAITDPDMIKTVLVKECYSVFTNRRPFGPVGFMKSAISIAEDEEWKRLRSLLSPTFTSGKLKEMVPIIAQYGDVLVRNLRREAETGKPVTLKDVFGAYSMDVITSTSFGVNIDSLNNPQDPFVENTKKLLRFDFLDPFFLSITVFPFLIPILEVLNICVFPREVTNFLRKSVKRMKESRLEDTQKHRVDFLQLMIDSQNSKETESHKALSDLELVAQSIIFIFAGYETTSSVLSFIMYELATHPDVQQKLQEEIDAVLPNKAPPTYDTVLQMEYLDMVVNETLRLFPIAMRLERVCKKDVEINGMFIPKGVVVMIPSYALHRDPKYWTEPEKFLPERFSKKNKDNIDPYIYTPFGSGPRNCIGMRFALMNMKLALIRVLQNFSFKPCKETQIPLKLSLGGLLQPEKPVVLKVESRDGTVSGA
Protocol: as §4, §5

MCF10A cells = test: Cell viability (MTT) assay; format: cell-based, human
Protocol: as §1, §2

MDA-MB-231 cells [6] = test: Cell viability (MTT) assay; format: cell-based, human
Protocol: as §1, §2

HMEC cells = test: Cell viability (MTT) assay; format: cell-based, human; conditions: 120 hours, 0 to 1,000 nmol/L
Protocol: as §1

MDA-MB-468 cells [7] = test: Cell viability (MTT) assay; format: cell-based, human; conditions: 500 nmol/L, 72 hours
Protocol: as §1

MCF7 breast cancer cells = test: Cell viability (MTT) assay; format: cell-based, human; conditions: 250 nmol/L, 120 hr
Protocol: as §1
Supplementary Figure S1. Percentage cell viability of MDA-MB-231, GFP-HER2-BM, […]
nM for 120 hr. The bar graphs are presented as individual fold change data points from vehicle and grouped mean ± SEM. (n = 3; *, P < 0.05; ** P < 0.01).
(1 picture or pasted object on this page, not shown here)

MDA-MB-231 cells [8] = test: Apoptosis assay (Caspase-Glo3/7); format: cell-based, human; conditions: 500 nmol/L, 48 hours
Protocol: as §3

[9] = tested on: MDA-MB-231, GFP-HER2-BM, and MDA-MB-468 cells; test: Apoptosis assay (Caspase-Glo3/7), cell line not specified; format: cell-based, human; conditions: 500 nmol/L, 48 hours
Protocol: as §3

MDA-MB-231 cells [10] = test: Phalloidin staining of F-actin, cell phenotype; format: cell-based, human; conditions: 250 nmol/L, 12 hours
Description: Cells were fixed, permeabilized, and stained with rhodamine phalloidin to visualize F-actin as described previously ([23]). Fluorescence micrographs were acquired at 40× in a Keyence fluorescence microscope.

A549 lung cancer cells = test: EGF-induced ruffle formation; format: cell-based, human; conditions: 24 hours, then EGF 200 ng/mL
Protocol: Cells were fixed with 4% formaldehyde and F-actin stained with rhodamine phalloidin. Slides were visualized by fluorescence microscopy and five random fields were scored for the number of ruffles. Ruffle area was measured by thresholding for single intensity using ImageJ/Fiji software, as in ref. [29].

[11] = target: T4, Rac1(G15A) interaction with Vav2 (Homo sapiens, UniProt P63000, G15A); test: Rac1 (G15A) pulldown assay, Vav2; format: binding; conditions: for potency relative to EHop-016 (parent compound): Vav/Rac inhibitor
T4 construct: purchased Cell Biolabs; host or cells: GEF from MDA-MB-231 lysate
Protocol: MDA-MB-231 cells were lysed in 1% Triton X-100, 20 mmol/L HEPES, pH 7.4, 150 mmol/L NaCl, 5 mmol/L MgCl2, and protease inhibitors, and processed as described previously ([20]). Equal amounts of protein from cleared lysates were incubated for 1 hour at 4°C with glutathione-agarose beads conjugated to GST-Rac1 and GST-Cdc42(G15A) nucleotide-free mutant (Cell Biolabs) that were preincubated (for 1 hour) with vehicle or Rac/Cdc42 inhibitors, as indicated. The beads were washed, and pulldowns were immunoblotted for Vav2 or Ect2.

Rac1 [12] = target: Rac1 (Homo sapiens, UniProt P63000); test: Rac activation pulldown assay in MDA-MB-231 cells; conditions: MDA-MB-231, read-out: inhibition of Rac1 activity, MDA-MB-231, 250 nmol/L, 24 hours
Rac1B splice variant = Rac1B splice variant (Homo sapiens, UniProt P63000); test: Rac1B activation pulldown assay in MDA-MB-468 cells; conditions: MDA-MB-468, read-out: inhibition of Rac1B activation, MDA-MB-468, 500 nmol/L, 24 hours
MDA-MB-468 cells [13] = test: Apoptosis assay (Caspase-Glo3/7); format: cell-based, human; conditions: 500 nmol/L, 48 hours
Protocol: as §3

SMILES: CCn1c2ccccc2c2cc(Nc3ccnc(NCCCN4CCOCC4)n3)ccc21 [EHop-016]
IC50 (Rac; blocking the interaction of Rac with the GEF Vav): 1100 nM

SMILES: COc1ccc(C2=NN(c3ccc(S(N)(=O)=O)cc3)C(c3ccccc3)C2)cc1 (stereo not drawn) [ML141]
IC50 (Cdc42): 3000 to 5000 nM

SMILES: O=C(C#Cc1ccccc1)c1cccc([N+](=O)[O-])c1 [MLS000532223]
IC50 (Rac): > 10000 nM

SMILES: CCn1c2ccccc2c2cc(-n3nncc3-c3ccccn3)ccc21 [MBQ-170]
effect on viability of cancer cells [2]: did not affect the viability of cancer cells
wound closure (MDA-MB-231 cells [3]): wound was closed in 24 hours

SMILES: O=c1cc(CN2CCOCC2)occ1OCCCCCSc1ccnc2cc(C(F)(F)F)ccc12 [EHT1864]
IC50 (Rac): > 10000 nM

CYP2C19 IC50, fold lower than the IC50 for the positive control (CYP2C19): approximately 6 fold
IC50 at 30 min (CYP2C19; human, recombinant human CYP enzyme, 0.001–100 μmol/L): 580 nM
IC50 (CYP2C9): 870 nM
IC50 (CYP3A4): 3310 nM
SMILES: CCn1c2ccccc2c2cc(-n3nncc3-c3cccc(C)c3)ccc21 [MBQ-169]
inhibition of cell viability (GFP-HER2-BM cells [4]; 500 nmol/L, 72 hours): approximately 75%
Caspase-3/7 activity (GFP-HER2-BM cells [5]): significantly increased Caspase-3/7 activity

SMILES: CCn1c2ccccc2c2cc(-n3nnc(C(O)c4ccco4)c3-c3ccccc3)ccc21 (stereo not drawn) [EHop-098]
inhibition of cell viability (GFP-HER2-BM cells [4]; 500 nmol/L, 72 hours): 80%

IC50 (CYP2C19; recombinant human CYP enzyme, 0.001–100 μmol/L): 12400 nM
IC50 (CYP2C9): 1550 nM
IC50 (CYP3A4): 8040 nM
SMILES: CCn1c2ccccc2c2cc(-n3nncc3-c3cccnc3)ccc21 [MBQ-171]
inhibition of cell viability (GFP-HER2-BM cells [4]; 500 nmol/L, 72 hours): approximately 75%

GI50 (MDA-MB-231 cells [6]; Homo sapiens, MDA-MB-231, 120 hours, 0 to 1,000 nmol/L): 327 nM
Rac1(G15A) interaction with Vav2 ([11]; 250 nmol/L, 1 hour preincubation, MDA-MB-231 cell lysates): blocked the interaction
efficacy compared with EHop-016 at 8 μmol/L ([11]; EHop-097 at 250 nmol/L): 4 X
potency relative to EHop-016 (parent compound) [11]: 10–30 ×
potency relative to EHop-016 (parent compound) ([11]; listed as Ehop-097): 10 ×
inhibition at 0.25 µM (Rac1 [12]): ~85%
inhibition at 0.5 µM (Rac1B splice variant): ~60%
SMILES: CCn1c2ccccc2c2cc(-n3nnc(C(O)c4cccc(OC)c4)c3-c3ccccc3)ccc21 (stereo not drawn) [EHop-097]
inhibition of cell viability (GFP-HER2-BM cells [4]; 250 nmol/L, 120 hr): approximately 60%
inhibition of cell viability (GFP-HER2-BM cells [4]; 500 nmol/L, 72 hours): 80%
GI50 (GFP-HER2-BM cells [4]; Homo sapiens, 120 hours, 0 to 1,000 nmol/L): 261 nM
inhibition of cell viability (MCF10A cells; 250 nmol/L, 120 hr): not effective
GI50 (MCF10A cells; Homo sapiens, MCF-10A, 120 hours, 0 to 1,000 nmol/L): 335 nM
inhibition of cell viability (MDA-MB-231 cells [6]; 250 nmol/L, 120 hr): not effective
inhibition of cell viability (MDA-MB-231 cells [6]; 500 nmol/L, 72 hours): 50%
effect on viability of HMECs (HMEC cells): did not affect the viability of HMECs
inhibition of cell viability (MDA-MB-468 cells [7]): nonstatistically significant trend
inhibition of cell viability (MCF7 breast cancer cells): not effective
Caspase-3/7 activity (GFP-HER2-BM cells [5]): significantly increased Caspase-3/7 activity
Caspase-3/7 activity (MDA-MB-231 cells [8]): significantly increased Caspase-3/7 activity
caspase-3/7 activity compared with the vehicle [9]: three to five times
wound closure (MDA-MB-231 cells [3]): wound area was maintained at 12 and 24 hours
cell phenotype, actin cytoskeleton (MDA-MB-231 cells [10]): smaller and less spread but did not have the characteristic loss of polarity
loss in ruffles (A549 lung cancer cells; 500 nmol/L): 33%
decrease in ruffles (A549 lung cancer cells; 1,000 nmol/L): 58%

SMILES: CCn1c2ccccc2c2cc(-n3nnc(C(O)c4cccnc4)c3-c3ccccc3)ccc21 (stereo not drawn) [EHop-040]
inhibition of cell viability (GFP-HER2-BM cells [4]; 500 nmol/L, 72 hours): 80%
Caspase-3/7 activity (GFP-HER2-BM cells [5]): significantly increased Caspase-3/7 activity
Caspase-3/7 activity (MDA-MB-468 cells [13]): significantly increased Caspase-3/7 activity

Reference: article PMC9970268 (Cancer Research Communications, 2022)
